From patent US6955891B2 (priority 2002, dated 2005)

Experiments:
[1] = target: Bacillus anthracis lethal factor (Bacillus anthracis, UniProt P15917)
Lethal factor = Lethal factor (Bacillus anthracis, UniProt P15917); conditions: cited from earlier work
Sequence of Lethal factor (P15917 34-809 limits assumed): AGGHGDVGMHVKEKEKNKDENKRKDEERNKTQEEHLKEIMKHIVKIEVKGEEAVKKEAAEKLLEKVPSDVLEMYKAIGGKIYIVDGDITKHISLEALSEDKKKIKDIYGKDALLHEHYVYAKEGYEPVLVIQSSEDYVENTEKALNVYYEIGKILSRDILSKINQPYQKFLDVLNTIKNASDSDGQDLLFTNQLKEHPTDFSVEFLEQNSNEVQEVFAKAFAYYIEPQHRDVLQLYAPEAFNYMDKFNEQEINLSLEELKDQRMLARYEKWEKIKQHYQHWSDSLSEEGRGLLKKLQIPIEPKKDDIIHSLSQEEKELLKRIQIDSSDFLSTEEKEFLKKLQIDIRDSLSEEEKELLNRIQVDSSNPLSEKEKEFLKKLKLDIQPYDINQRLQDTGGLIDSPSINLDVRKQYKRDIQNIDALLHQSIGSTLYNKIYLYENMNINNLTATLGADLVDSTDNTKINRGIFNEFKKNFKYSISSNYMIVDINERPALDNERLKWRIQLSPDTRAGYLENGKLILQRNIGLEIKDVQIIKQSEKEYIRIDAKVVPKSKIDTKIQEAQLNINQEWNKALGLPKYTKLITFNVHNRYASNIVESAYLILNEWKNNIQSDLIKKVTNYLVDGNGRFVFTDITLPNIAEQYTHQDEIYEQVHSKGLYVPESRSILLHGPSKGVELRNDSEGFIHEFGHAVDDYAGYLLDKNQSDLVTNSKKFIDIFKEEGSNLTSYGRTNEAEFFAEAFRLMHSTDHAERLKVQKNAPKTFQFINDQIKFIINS

Sequence of Bacillus anthracis lethal factor (P15917 34-809 limits assumed): as above

Row | Molecule | signal/background (S/B) at 100% cleavage [1] | effect on in vitro cleavage of synthetic peptides by lethal factor (Lethal factor)
1 | (Cou)NleKKKKVLP IQLNAATDK(Q-35)GG-NH2 [(Cou)Consensus(K(QSY-35)GG)-NH2] | largest S/B | 
2 | c1cnc2c(c1)ccc1cccnc12 [1,10-phenanthroline] |  | inhibited
